pIC50: −log10 of the molar value.
Key:
Format in all cases: biochemical
[1] = biological target: Chymotrypsin (Bos taurus, UniProt P00766); test: Chymotrypsin inhibitory effects (Hestrin color method, acetyl-L-tyrosine ethyl ester substrate); settings: pH 8.0, 10 min preincubation, 30 min at 37° C., ethyl ester of acetyl-L-tyrosine; read-out: 50% Inhibitory Concentration, Chymotrypsin
Method: Following the procedure of Muramatsu et al [The Journal of Biochemistry, 62, 408 (1967)], a mixture of 0.1 ml of a dimethylsulfoxide solution of each test compound, 0.1 ml of water and 0.1 ml of a buffer solution containing chymotrypsin in an amount of 10 μg/ml (a 0.1 mole trishydrochloric acid buffer solution, pH 8.0) was incubated for 10 minutes, combined with 0.1 ml of a buffer solution containing 25 millimoles of an ethyl ester of acetyl-L-tyrosine and then reacted with the ethyl ester at 37° C. for 30 minutes. The remaining substrate was caused to develop a color in accordance with the Hestrin method, and the amount was determined by measuring the absorbance at 530 nm. As a control compound, use was made of tosylphenylalanine chloromethyl ketone.

[2] = biological target: T1, Trypsin (Bos taurus, UniProt P00760); test: Trypsin inhibitory effects (Hestrin color method, tosylarginine methyl ester substrate); settings: pH 8.0, 10 min preincubation, 30 min at 37° C., methyl ester of tosylarginine; read-out: 50% Inhibitory Concentration, Trypsin
T1 sequence (P00760 24-246): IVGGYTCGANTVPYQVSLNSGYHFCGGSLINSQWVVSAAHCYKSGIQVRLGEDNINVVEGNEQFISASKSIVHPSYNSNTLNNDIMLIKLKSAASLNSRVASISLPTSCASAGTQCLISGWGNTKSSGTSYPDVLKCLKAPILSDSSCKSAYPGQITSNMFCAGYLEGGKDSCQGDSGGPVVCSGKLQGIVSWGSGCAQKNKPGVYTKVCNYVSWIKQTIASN
Method: Following the procedure of Muramatsu et al [The Journal of Biochemistry, 58, 214 (1967)], a mixture of 0.1 ml of a dimethylsufoxide solution of each test compound, 0.1 ml of a buffer solution (obtained by dissolving 10 millimoles of calcium chloride in a 0.1 mole trishydrochloric acid buffer solution, pH 8.0) and 0.1 ml of a buffer solution containing trypsin in an amount of 2.5 μg/ml was incubated for 10 minutes, mixed with 0.2 ml of a buffer solution containing 25 millimoles of a methyl ester of tosylarginine and then reacted with the methyl ester at 37° C. for 30 minutes. The remaining substrate was caused to develop a color in accordance with the Hestrin method, and the amount was determined by measuring the absorbance at 530 nm.

[3] = biological target: Thrombin (Homo sapiens, UniProt P00734); test: Thrombin inhibitory effects (Hestrin color method, tosylarginine methyl ester substrate); settings: pH 7.4, 10 min preincubation, 30 min at 37° C., methyl ester of tosylarginine; read-out: 50% Inhibitory Concentration, Thrombin
Method: Following the procedure of Tamura et al [Biochim. Biophys. Acta, 484, 417 (1977)], a mixture of 0.1 ml of a dimethylsulfoxide solution of each test compound, 0.1 ml of a buffer solution (a 0.1 mole sodium phosphate buffer, pH 7.4) and 0.1 ml of a buffer solution containing thrombin in an amount of 37.5 units/ml was incubated for 10 minutes, mixed with 0.2 ml of a buffer solution containing 25 millimoles of a methyl ester of tosylarginine and then reacted with the methyl ester at 37° C. for 30 minutes. The remaining substrate was caused to develop a color in accordance with the Hestrin method, and the amount was determined by measuring the absorbance at 530 nm.

Structure (SMILES)	pIC50 [1]	pIC50 [2]	pIC50 [3]
COc1ccc2[nH]c(C)c(CC(=O)Oc3ccc(C(=O)OCCN4CCN(CC(=O)N(C)C)CC4)cc3)c2c1 [Test Compound 6, 4-{[2-[4-(Dimethylaminocarbonylmethyl)piperazino]ethyl]oxycarbonyl}phenyl 5-methoxy-2-methylindole-3-acetate]	6.30	4.10	4.22
COc1ccc2[nH]c(C)c(CC(=O)Oc3ccc(C=CC(=O)N4CCN(CC(=O)N5CCCC5)CC4)cc3)c2c1 [Test Compound 10, 1-[4-(5-Methoxy-2-methylindole-3-acetyloxy)cynnamoyl]-4-(pyrrolidinocarbonylmethyl)piperazine]	6.10	3.22	3.52
COc1ccc2[nH]c(C)c(CC(=O)Oc3ccc(C(=O)NCCN4CCN(CC(=O)N5CCOCC5)CC4)cc3)c2c1 [Test Compound 11, 4-{[2-[4-(Morpholinocarbonylmethyl)piperazino]ethyl]carbamoyl}phenyl 5-methoxy-2-methylindole-3-acetate]	6.22	4.10	4.00
COc1ccc2[nH]c(C)c(CC(=O)Oc3ccc(C(=O)OCCN4CCN(C)CC4)cc3)c2c1 [Test Compound 9, 4-{[2-(4-Methylpiperazino)ethyl]oxycarbonyl}phenyl 5-methoxy-2-methylindole-3-acetate]	7.22	3.52	4.40
COc1ccc2[nH]c(C)c(CC(=O)Oc3ccc(C(=O)OCCN4CCN(CC(=O)N5CCOCC5)CC4)cc3)c2c1 [Test Compound 7, 4-{[2-[4-(Morpholinocarbonylmethyl)piperazino]ethyl]oxycarbonyl}phenyl 5-methoxy-2-methylindole-3-acetate]	6.22	3.70	4.15
COc1ccc2[nH]cc(CC(=O)Oc3ccc(C(=O)OCCN4CCN(CC(=O)N5CCCC5)CC4)cc3)c2c1 [Test Compound 8, 4-{[2-[4-(Pyrrolidinocarbonylmethyl)piperazino]ethyl]oxycarbonyl}phenyl 5-methoxyindole-3-acetate]	7.30	< 3.00	3.22
COc1ccc2c(c1)c(CC(=O)Oc1ccc(C(=O)OCCN3CCN(CC(=O)N4CCCC4)CC3)cc1)c(C)n2C [Test Compound 2, 4-{[2-[4-(Pyrrolidinocarbonylmethyl)piperazino]ethyl]oxycarbonyl}phenyl 1,2-dimethyl-5-methoxyindole-3-acetate]	7.15	3.30	3.05
COc1ccc2[nH]c(C)c(CC(=O)Oc3ccc(C(=O)OCCN4CCN(CCN5CCOCC5)CC4)cc3)c2c1 [Test Compound 1, 4-{[2-[4-[2-(Morpholino)ethyl]piperazino]ethyl]oxycarbonyl}phenyl 5-methoxy-2-methylindole-3-acetate]	7.00	4.30	4.00

Second part, the molecule after the results:

pIC50 [1]	pIC50 [2]	pIC50 [3]	Structure (SMILES)
3.30	–	–	Cc1ccc(S(=O)(=O)N[C@@H](Cc2ccccc2)C(=O)CCl)cc1 [TPCK, Tosylphenylalanine chloromethyl ketone, reference compound]
6.52	< 3.00	5.05	CN(C)C(=O)CN1CCN(CCOC(=O)c2ccc(OC(=O)Cc3cccc4ccccc34)cc2)CC1 [Test Compound 4, 4-{[2-[4-(Dimethylaminocarbonylmethyl)piperazino]ethyl]oxycarbonyl}phenyl 1-naphthylacetate]
6.22	3.30	4.05	O=C(OCCN1CCN(CC(=O)N2CCOCC2)CC1)c1ccc(OC(=O)C2CCCc3ccccc32)cc1 (stereo not shown) [Test Compound 3, 4-{[2-[4-(Morpholinocarbonylmethyl)piperazino]ethyl]oxycarbonyl}phenyl 1,2,3,4-tetrahydro-1-naphthoate]
6.52	< 3.00	5.05	O=C(Cc1cccc2ccccc12)Oc1ccc(C(=O)OCCN2CCN(CC(=O)N3CCCCC3)CC2)cc1 [Test Compound 5, 4-{[2-[4-(Piperidinocarbonylmethyl)piperazino]ethyl]oxycarbonyl}phenyl 1-naphtylacetate]
